Tested on: male mice of the C57 BL/6 line
Assay: von Frey filament test (mechanical allodynia) in the model of visceral pain induced by TNBS colitis
Type: in vivo
Settings: for Mechanical allodynia intensity, g (mean ± standard error of the mean): oral once daily from day 3 after TNBS, von Frey test on Day 28, placebo 2.0 ± 0.5
Procedure: In the experiments, 13-week old male mice of the C57 BL/6 line were used. Sixty (60) animals were randomly distributed into four (4) groups of equal number (N=15) characterized by the dosage of the administered compound.
The study was conducted for three different doses of the compound of Formula I. A group of mice receiving only the carrier (starch solution) served as the control group (placebo group).
Colitis was induced by introducing 0.1 mL of TNBS (trinitrobenzene sulfonate) (130 μg/mL in 30% EtOH) into the large intestine through a polyethylene catheter introduced by 3 cm into the anus of mice anesthetized with isoflurane. Then, the mice were arranged individually, and changes in the body weight, appearance and behavior were observed daily. A histological study of the mucosa structure, cell infiltrate, intestinal crypt abscesses and goblet cells confirmed significant damage caused by the TNBS introduction on Day 3 and, in a significant degree, on Day 7 [6].
The preparations were introduced orally in three days after the TNBS introduction and then once daily for the whole study period.
To assess pain behavior, the von Frey test with filaments (appearance of mechanical allodynia) on Day 28 after the TNBS introduction.
The animals were put into an acrylic chamber (15×15×15 cm) raised above the ground with a wire mesh on the bottom. Before starting the tests, the animals were left in the chamber for 5-10 minutes for adaptation. Then, the abdominal cavity of the animal was stimulated with von Frey calibrated filaments (or fibers) (BIOSEB, USA). The filaments were a set of 10 standard plastic fibers of increasing diameters. The fiber rigidity, which is expressed as a minimal force required to flex a fiber, was increased in such calibration logarithmically, with absolute values from 0.6 g to 26 g. Sensitivity threshold of each mouse was determined in three repeats (6 touches in total with 10-second interval for each filament; the interval between successive touches with different filaments was 2 minutes). The abdominal surface was poked with a force required to flex the fiber, and the fiber was held in that position for 6-8 seconds. The positive response was recorded, if the animal sharply winced during touching. A sensitivity threshold was determined by a minimal pressure causing the wincing reflex reaction (4 times of 6 touches).
An average score received in a corresponding test and a standard error of the mean for each value were calculated for each study group (n=15).

## [2-(dimethylamino)-2-phenylbutyl]-3,4,5-trimethoxybenzoate 4-methyl-2H-chromen-2-on-7-yl sulphate [Compound of Formula I]
Dose 10 mg/day (recalculated for a human), group 2, n=15
  Mechanical allodynia intensity, g (mean ± standard error of the mean): 10.0 ± 0.5 g
Dose 300 mg/day (recalculated for a human), group 3, n=15
  Mechanical allodynia intensity, g (mean ± standard error of the mean): 21.4 ± 0.9 g
Dose 1,800 mg/day (recalculated for a human), group 4, n=15
  Mechanical allodynia intensity, g (mean ± standard error of the mean): 23.1 ± 1.0 g
Groups receiving the compound (10, 300, 1,800 mg/day), p < 0.05 versus placebo
  Indices of mechanical allodynia versus placebo: significantly lower

Source: patent publication US12497376B2, “Compound [2-(dimethylamino)-2-phenylbutyl]-3,4,5-trimethoxybenzoate 4-methyl-2H-chromen-2-on-7-yl sulphate and use thereof” (LTD “VALENTA—INTELLEKT”, priority 2020, dated 2025)
